Reference: article PMC6421297, “Novel Mouse Tauopathy Model for Repetitive Mild Traumatic Brain Injury: Evaluation of Long-Term Effects on Cognition and Biomarker Levels After Therapeutic Inhibition of Tau Phosphorylation” (Frontiers in Neurology, 2019)

Assays:
[1] = tested on: tau phosphorylation at Thr231 and Ser202 in SH-SY5Y-(P301L) cells; assay type: cell-based; details: 6 h
Description: (§1) SH-SY5Y-P301L cells (gift from Prof. Fred Van Leuven, Department of Human Genetics, KU Leuven, Belgium) were cultured Dulbecco's Modified Eagle Medium (DMEM):Nutrient Mixture F-12 (DMEM/F-12, Gibco, c/o Invitrogen, Saint Aubin, France) containing 1% Penicillin-Streptomycin mixture (Gibco) and 10% fetal bovine serum (FBS, Gibco) in a humidified, 5% CO2 incubator at 37°C. Cells were split routinely once a week. Cells were seeded at a density of 1.5 x 10^6 cells/well in P60 well plates with 4 ml medium/well and exposed for 6 h to a range of ros concentrations (Figures 2–4) or to a few concentrations of various kinase inhibitors with different selectivities (Figure 3). At the end of the incubation cells were harvested for Western blotting. Cells were scraped in cold phosphate-buffered saline, centrifuged at 10,000 x g for 5 min at 4°C, and pellets were snap-frozen in liquid nitrogen. Experiments were repeated three or four times.
(§2) For Western blot analysis, cell pellets were lysed in homogenization buffer (25 mM MOPS, 15 mM EGTA, 15 mM MgCl2, 60 mM β-glycerophosphate, 15 mM p-nitrophenylphosphate, 2 mM dithiothreitol (DTT), 1 mM Na3VO4, 1 mM NaF, 1 mM disodium phenylphosphate, 1x protease inhibitor cocktail, 0.2% Nonidet P-40 substitute). Protein extracts were mixed (1:1 v/v) with sample buffer (2 × NuPAGE LDS sample buffer, 200 mM DTT) and 20 μg of total protein was loaded on NuPAGE 4–12% Bis-Tris protein gels. Electrophoresis was carried out at 70 V in MOPS buffer for 4 h. Rapid blot transfers were performed at 2.5A/25V for 7 min. […] P-tau and T-tau signals were first normalized to GAPDH from the same membranes, and then divided one by another to obtain the level of pS202 or pT231 relative to T-tau. Values are presented as mean±SEM of three or four independent experiments.

[2] = tested on: S202-Tau phosphorylation in SH-SY5Y-(P301L) cells; experiment: Western blot of pS202-tau/T-tau in SH-SY5Y-(P301L) cells, roscovitine and/or LiCl, with coefficient of drug interaction; assay type: cell-based; details: 6 h; for tau phosphorylation (pS202-tau), individual treatment: single agent
Description: as §1, §2
For cell cultures and immunoblotting data the two-tailed unpaired t-test (Graphpad Prism) was used. Coefficients of drug interaction (CDI) were calculated as follows: CDI = AB/(A × B). According to the ratio pS202 tau/T-tau of each group, AB is the ratio of the combination groups to control group; A or B is the ratio of the single agent group to control group. […]

epileptic rats = tested on: epileptic rats; design: method as in PMID 28595035; details: cited from earlier work
mice following TBI = details: cited from earlier work

Compound	Inhibition of tau phosphorylation at Thr231 and Ser202 ([1]; 25, 50, and 100 μM)	reduction of tau phosphorylation by inhibitors to secondary kinase targets ([1]; 25, 50, and 100 μM)	other results
O=C(NC1CCNCC1)c1[nH]ncc1NC(=O)c1c(Cl)cccc1Cl [AT7519]	evident		
CC[C@H](CO)Nc1nc(NCc2ccc(-c3ccccn3)cc2)c2ncn(C(C)C)c2n1 [CR8]	evident		
NC(=O)c1ccc(-c2nc(-c3ccc4c(c3)OCCO4)c(-c3ccccn3)[nH]2)cc1 [D4476]		none of the inhibitors to secondary kinase targets reduced tau phosphorylation	
COc1cc(OC)c(C=C2C(O)=Nc3ccccc32)c(OC)c1 [IC261]			activity at site pSer202 ([1]; 25, 50, and 100 μM): active
O=C1NC(Nc2ccccc2)=N/C1=C\c1ccc2c(c1)OCO2 [Leucettine 41]		none of the inhibitors to secondary kinase targets reduced tau phosphorylation	
[Cl-].[Li+] [LiCl, lithium chloride]			dose-response of pS202-tau inhibition, LiCl alone ([2]; LiCl alone): no dose-response relationship; tau phosphorylation (pS202-tau), individual treatment [2]: slightly down-regulated; epilepsy-induced axonal impairment (epileptic rats): reversed axonal impairment
CC[C@@H](CO)Nc1nc(N(C)Cc2ccc(-c3ccccn3)cc2)c2ncn(C(C)C)c2n1 [N6-methyl-CR8]	not		cause of decreases in P-tau at the high dose ([1]; 100 μM): likely the result of drug-associated cell toxicity
CCC(CO)Nc1nc(N(C)Cc2ccccc2)c2ncn(C(C)C)c2n1 (centres unmarked) [N6-methyl-roscovitine]	not		
COc1cccc(-c2cc(=O)c3ccccc3o2)c1N [PD098059]		none of the inhibitors to secondary kinase targets reduced tau phosphorylation	
CC[C@H](CO)Nc1nc(NCc2ccccc2)c2ncn(C(C)C)c2n1 [Roscovitine, (R)-roscovitine]	evident		inhibition of Ser202 phosphorylation, ros alone ([2]; ros alone): moderate and dose-dependent inhibition; tau phosphorylation (pS202-tau), individual treatment [2]: slightly down-regulated; cognitive deficits, spatial learning and memory after TBI (mice following TBI): attenuated cognitive deficits and improved spatial learning and memory; inhibition of Thr231 and Ser202 phosphorylation ([1]; range of ros concentrations): dose-dependent inhibition; epilepsy-induced axonal impairment (epileptic rats): reversed axonal impairment
CCc1cnn2c(NCc3ccc[n+]([O-])c3)cc(N3CCCC[C@H]3CCO)nc12 [SCH727965]	evident		
CC(C)(C)c1cnc(CSc2cnc(NC(=O)C3CCNCC3)s2)o1 [SNS-032, N-[5-[[[5-(1,1-dimethylethyl)-2-oxazolyl]methyl]thio]-2-thiazolyl]-4-piperidinecarboxamide]	evident		
CCN1/C(=C/C(C)=O)Sc2ccc(OC)cc21 [TG003]		none of the inhibitors to secondary kinase targets reduced tau phosphorylation	
N#CC(=C(/N)Sc1ccccc1N)/C(C#N)=C(/N)Sc1ccccc1N [UO126]		none of the inhibitors to secondary kinase targets reduced tau phosphorylation	
COc1ccc2c(c1)[nH]c1c(C)nccc12 [harmine]		none of the inhibitors to secondary kinase targets reduced tau phosphorylation	
